Laboratory results reported in patent publication US20250345350A1, “TREATING PAIN ASSOCIATED WITH CENTRAL SENSITIZATION” (Medicon Pharmaceuticals, Inc., priority 2022, published 2025).
Read-outs that look alike come from different tables or passages of the source.

Legend:
[1] = test system: STZ-induced central sensitization in Sprague-Dawley rats; assay: PWT (von Frey), streptozotocin rat model of central sensitization (Example 4); assay type: in vivo; conditions: week 7; PS 8% hydrogel to both hind paws 3 times a day for 3 weeks from week 4 after STZ
Description: Sprague-Dawley rats were fasted for 4-6 hours before being injected intraperitoneally with 45 mg/kg STZ. This was performed for all experimental groups, except the naive group. In order to prevent hypoglycaemic death, rats received 10% sucrose water as the sole water source for the first 48 hours after injection. In order to ensure only those rats considered diabetic (i.e., having non-fasting plasma glucose levels of >250 mg/dL) were included in the study, blood glucose was measured at 72 hours after the STZ injection.
Four weeks after STZ injection, the rats were randomised into treatment groups. This delay between STZ injection and treatment allows the establishment of chronic pain (allodynia) associated with central sensitization. […] 5% lidocaine cream (positive control) was applied only once to both hind paws of the rats 30 minutes before measurement of PWT.
The rats were split into 8 study groups, with those in the experimental groups (1-4) having an average body weight of about 225 g, and those in the control groups (5-8) having an average body weight of about 335 g, as follows: • 1. Group 1: naive rats (n=5) • 2. Group 2: STZ only (n=6) • 3. Group 3: STZ plus vehicle (n=6) • 4. […] Group 5: STZ plus oral vehicle (n=8) • 6. Group 6: STZ plus 0.7% sulindac hydrogel (n=7) • 7. Group 7: STZ plus 5% lidocaine cream (n=8) • 8.

[2] = test system: PHN induced by HSV-1 KOS strain virus in BALB/c mice; assay: PWT (von Frey), HSV-1 mouse model of PHN, topical (Example 20); assay type: in vivo
Description: PHN was induced in mice by infecting them with the HSV-1 KOS strain virus and following established protocols (Ou et al, Front Immunol, 14, 1026269, 2023; Takasaki et al, Anesthesiology, 96(5), 1168-74, 2002).
; Reckitt Benckiser). Three days later, HSV-1 (10^6 PFUs in 20 μl PBS) was inoculated on the shin of the right hind paw (5×5 mm) after scarification with sandpaper. The virus was applied directly to the scarified area. The contralateral hind paw was without inoculation. Mock infection was performed using the same virus inactivated by heating at 60° C. for 1 h.
. Group 1: sham inoculated (n=5-7) • 2.
In a second experiment, the effect of the parent compound, sulindac, was tested in the same mouse model. Five days post-inoculation, sulindac (as a 5% gel), or vehicle control were administered topically onto both hind paws of mice three times a day for three days.
. Group 1: vehicle control (n=5-7) • 2. Group 2: sulindac 5% (n=5-7)

[3] = Pharmacokinetics and biodistribution after topical PS 8% ointment to hind paws (Example 25); assay type: in vivo, mouse; conditions: normal mice, topical PS 8% ointment to hind paws; for AUC(0-t) / Cmax / half-life: mouse, in vivo, topical or ocular, 50 μl per paw of PS 8% ointment; for AUC(0-t): read-out: AUC0-24 h; for Cmax: read-out: Cmax, mean ± SEM
Description: At 0.5, 1, 3, 5, 12, 18, and 24 h, mice (n=4-5 mice/time point) were euthanized with CO2 inhalation. Blood was drawn immediately after death. Tissues, including paw skin, paw muscle, leg muscle, the sciatic nerve and lumbar DRG bilaterally were dissected quickly, immediately frozen in liquid nitrogen and stored at −80° C. until analyzed.

[4] = PS and metabolites in proximal and distal half of the sciatic nerve (Example 25); assay type: in vivo, mouse; conditions: mice with paclitaxel-induced PN, PS 8% ointment 3x/d for 2 wks, 30 min after last dose; for concentration at 30 min: mouse, in vivo, 8 % PS ointment, 3×/d
Description: In a separate experiment we studied 8 mice with paclitaxel-induced PN treated with PS 8% ointment 3×/d for 2 wks. Mice were euthanized as above 30 minutes after the last dose of PS. From these mice we harvested both sciatic nerves dividing each into proximal and distal halves, and combined the corresponding halves of every two animals for assay of drug levels.

[5] = Pharmacokinetics and biodistribution after 3% PS gel on outer surface of eyelid (Example 26); assay type: in vivo, rabbit; conditions: male, New Zealand White, rabbit, rabbits, 3% PS gel on outer surface of upper eyelids; for Cmax / half-life / AUC(0-t): topical or ocular; for AUC(0-t): read-out: AUC0-24 h; for concentration at 0.5 h / concentration at 1 h / concentration at 2 h / concentration at 4 h / concentration at 8 h / concentration at 24 h: topical, read-out: Amount in tissue, Mean ± SEM
Description: The pharmacokinetics and biodistribution of 3% PS gel applied to the outer surface of both upper eyelids was studies in male New Zealand White rabbits.
Eyelid and tissues of the globe were dissected and frozen quickly in liquid nitrogen until the levels of PS and its metabolites were determined by HPLC as described Xie et al. (Br J Pharmacol (2012);165:2152-66).

[6] = test system: paclitaxel-induced central sensitization in C57/BL/6J mice; conditions: day 14
Description: Regarding the treatment with lidocaine: 5% lidocaine cream (a positive control) was applied once to both hind paws of the mice 30 minutes before measurement of PWT.
Briefly, for mechanical allodynia, pain threshold responses were measured using the well-established method of von Frey filaments in line with that performed in the earlier Examples. The PWT test was performed on day-8 (before the first dose of paclitaxel), the day of starting treatment (day 0, at which central sensitization was fully established) and day 14 (treatment continued until day 15). The mechanical threshold, expressed as g, indicates the force of the von Frey filament to which the animal reacted.

[7] = test system: NTG-induced chronic migraine in mice; assay: PWT (von Frey), NTG-induced chronic migraine model, oral (Example 16)
Description: In particular, mice receive sublingual NTG 0.4 mg in the form of a finely crushed 0.4 mg NTG tablet (Greenstone Brand) every two days, receiving a total of five doses. For control mice, an NTG placebo (Practi-Nitroglycerin Sublingual 0.4 mg Simulated Medication tablet) was administered in the same way.
Group 1: placebo NTG (i.e, no NTG treatment, n=8) • 2. Group 2: NTG (n=8) • 3. Group 3: NTG+vehicle (n=8) • 4. […] Group 5: NTG+sulindac (n=8)
Mechanical allodynia was determined using von Frey filaments in line with that performed in the earlier Examples. The PWT test was performed prior to NTG (or placebo NTG) administration to determine baseline values, as indicated. […] The mechanical threshold, expressed as g, indicates the force of the von Frey filament to which the animal reacted.

[8] = test system: NTG-induced migraine in C57BL/6J mice; assay: PWT (von Frey), NTG-induced migraine mouse model, topical (Example 13)
Description: Specifically, instead of the intraperitoneal injection of NTG, a finely crushed 0.4 mg NTG tablet (Greenstone Brand) was administered sublingually. As a control, a Practi-Nitroglycerin Sublingual 0.4 mg Simulated Medication tablet was used.
For determining mechanical allodynia, pain threshold responses were measured using the well-established method of von Frey filaments in line with that performed in the earlier Examples.
The PWT test, assessing mechanical allodynia, was performed 30 minutes after treatment. The mechanical threshold, expressed as g, indicates the force of the von Frey filament to which the animal reacted.

CCOP(=O)(OCC)OCCCCOC(=O)CC1=C(C)/C(=C/c2ccc([S+](C)[O-])cc2)c2ccc(F)cc21 (centres unmarked) [PS, phosphosulindac]
PWT, gm Mean ± SEM [1]: 22.5 ± 2.20 gm | PWT, g Mean ± SEM ([2]; Post-inoculation, day 5 (before treatment)): 0.53 ± 0.06 g | PWT, g Mean ± SEM ([2]; Post-treatment, PS 5% gel on both hind paws three times a day for three days): 0.93 ± 0.06 g | PWT, g Mean ± SEM ([2]; Pre-inoculation): 1.27 ± 0.19 g | AUC(0-t) ([3]; DRG (dorsal root ganglia)): 4.5 µM·h | Cmax ([3]; DRG (dorsal root ganglia)): 0.3 ± 0.1 µM | half-life ([3]; SN (sciatic nerve)): 57.4 h | AUC(0-t) ([3]; SN (sciatic nerve)): 12 µM·h | Cmax ([3]; SN (sciatic nerve)): 0.9 ± 0.1 µM | half-life ([3]; leg muscle): 20.6 h | AUC(0-t) ([3]; leg muscle): 172 µM·h | Cmax ([3]; leg muscle): 35 ± 3.6 µM | half-life ([3]; paw muscle): 11.4 h | AUC(0-t) ([3]; paw muscle): 411 µM·h | Cmax ([3]; paw muscle): 102 ± 4.6 µM | half-life ([3]; paw skin): 16.1 h | AUC(0-t) ([3]; paw skin): 1610 µM·h | Cmax ([3]; paw skin): 195 ± 5.3 µM | detection in the systemic circulation [3]: no PS was detected | Distal half of sciatic nerve, mean ± SEM [4]: 17.0 ± 5.1 µM | Proximal half of sciatic nerve, μM, mean ± SEM [4]: 0.9 ± 0.3 µM | concentration at 30 min ([4]; read-out: Distal half of sciatic nerve, mean ± SEM): 17 ± 5.1 µM | concentration at 30 min ([4]; read-out: Proximal half of sciatic nerve, μM, mean ± SEM): 0.9 ± 0.3 µM | Cmax ([5]; conjunctiva): 5.8 µM | half-life ([5]; conjunctiva): 5.7 h | AUC(0-t) ([5]; conjunctiva): 58.6 ± 0.9 µM·h | Cmax ([5]; cornea): 1.8 µM | half-life ([5]; cornea): 23 h | AUC(0-t) ([5]; cornea): 6.4 ± 0.4 µM·h | Cmax ([5]; eyelid): 14.2 µM | half-life ([5]; eyelid): 14.4 h | AUC(0-t) ([5]; eyelid): 45.2 ± 0.5 µM·h | concentration at 0.5 h ([5]; AH (aqueous humor)): 0 µM | concentration at 1 h ([5]; AH (aqueous humor)): 0 µM | concentration at 2 h ([5]; AH (aqueous humor)): 0 µM | concentration at 4 h ([5]; AH (aqueous humor)): 0 µM | concentration at 8 h ([5]; AH (aqueous humor)): 0 µM | concentration at 24 h ([5]; AH (aqueous humor)): 0 µM | concentration at 0.5 h ([5]; conjunctiva): 1.3 ± 0.1 µM | concentration at 1 h ([5]; conjunctiva): 1.8 ± 0.3 µM | concentration at 2 h ([5]; conjunctiva): 0.4 ± 0.1 µM | concentration at 4 h ([5]; conjunctiva): 6.1 ± 3.3 µM | concentration at 8 h ([5]; conjunctiva): 3.4 ± 1.4 µM | concentration at 24 h ([5]; conjunctiva): 0.5 ± 0.4 µM | concentration at 0.5 h ([5]; cornea): 1.8 ± 0.9 µM | concentration at 1 h ([5]; cornea): 1.3 ± 0.2 µM | concentration at 2 h ([5]; cornea): 1.4 ± 0.1 µM | concentration at 4 h ([5]; cornea): 0.5 ± 0.1 µM | concentration at 8 h ([5]; cornea): 1.1 ± 0.6 µM | concentration at 24 h ([5]; cornea): 0 µM | concentration at 0.5 h ([5]; eyelid): 8.3 ± 2.2 µM | concentration at 1 h ([5]; eyelid): 14.2 ± 5.3 µM | concentration at 2 h ([5]; eyelid): 2 ± 0.5 µM | concentration at 4 h ([5]; eyelid): 3.5 ± 1.9 µM | concentration at 8 h ([5]; eyelid): 0.2 ± 0.2 µM | concentration at 24 h ([5]; eyelid): 1.8 ± 1.3 µM | concentration at 0.5 h ([5]; vitreous): 0 µM | concentration at 1 h ([5]; vitreous): 0 µM | concentration at 2 h ([5]; vitreous): 0 µM | concentration at 4 h ([5]; vitreous): 0 µM | concentration at 8 h ([5]; vitreous): 0 µM | concentration at 24 h ([5]; vitreous): 0 µM | PWT, g Mean ± SEM ([6]; PS 1.2% (equimolar to sulindac 0.7%) 3 times a day): 0.98 ± 0.06 g | PWT, g Mean ± SEM ([6]; PS hydrogel 5% or 0.7% sulindac 3 times a day, 5% lidocaine cream once 30 min before, pregabalin 10 mg/kg orally once 1 h before): 1.24 ± 0.07 g | PWT, g Mean ± SEM ([7]; Baseline, prior to NTG administration): 2.28 ± 0.34 g | PWT, g Mean ± SEM ([7]; Day 11, orally once a day for 11 days concurrent with NTG, PS 50 mg/kg, sulindac 33 mg/kg): 1.18 ± 0.10 g | PWT Post-treatment Mean ± SEM ([8]; 30 min after treatment, PS 8% gel or sulindac 5.3% (in DMSO) on both hind paws 30 min after NTG): 1.00 ± 0.12 g | PWT Baseline Mean ± SEM ([8]; baseline of the group, before NTG and treatment): 1.72 ± 0.10 g
